ChEMBL document CHEMBL1132727, “A novel pyridazinone derivative as a nonprostanoid PGI2 agonist” (Bioorg Med Chem Lett, 2000)
pIC50, pKi: −log10 of the molar value.

Experiments:
[1] = species: Homo sapiens; assay: Tested for Concentration required for the inhibition of ADP-induced aggregation of human platelets; assay type: functional
[2] = Half-life after intravenous administration in male rat; assay type: ADME, organism-based; details: in vivo
[3] = Half-life after intravenous administration in female rat; assay type: ADME, organism-based; details: in vivo
[4] = target: Prostacyclin receptor (Homo sapiens, UniProt P43119); assay: Tested for inhibition of 3[H]-iloprost binding to human IP receptor
[5] = Half-life after administration of 3.2 mg/kg intravenously in male rat; assay type: ADME, organism-based; set-up: dose 3.2 mg/kg, route intravenous; details: in vivo, iv
[6] = Oral Bioavailability after administration of 10 mg/kg in male rat; assay type: ADME, organism-based; details: in vivo, read-out: Bioavailabiility

Chain of Prostacyclin receptor (P43119 whole entry): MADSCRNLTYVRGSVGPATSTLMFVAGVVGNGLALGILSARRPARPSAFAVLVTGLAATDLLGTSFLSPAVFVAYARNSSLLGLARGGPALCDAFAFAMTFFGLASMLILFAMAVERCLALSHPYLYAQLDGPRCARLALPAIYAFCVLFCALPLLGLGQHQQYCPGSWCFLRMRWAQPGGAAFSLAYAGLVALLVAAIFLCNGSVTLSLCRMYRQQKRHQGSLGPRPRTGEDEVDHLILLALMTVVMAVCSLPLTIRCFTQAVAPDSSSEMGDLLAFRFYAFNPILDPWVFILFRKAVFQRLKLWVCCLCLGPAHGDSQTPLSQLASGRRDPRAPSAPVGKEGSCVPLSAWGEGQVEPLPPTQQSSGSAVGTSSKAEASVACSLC

| Structure (SMILES) | pIC50 [1] | pKi [4] | other results |
| --- | --- | --- | --- |
| O=C(O)COc1cccc2c1CC[C@H](Cn1cccc(C(c3ccccc3)c3ccccc3)c1=O)C2 | < 5.00 | – | – |
| CCC/C(CC1CCc2c(cccc2OCC(=O)O)C1)=N\OC(c1ccccc1)c1ccccc1 (configuration not stated) [AP-227] | 6.82 | – | – |
| O=C(O)COc1cccc2c1CC[C@H](Cn1cc(C(c3ccccc3)c3ccccc3)ccc1=O)C2 | 6.89 | – | – |

Compounds with a higher pIC50 [1], results first:

| pIC50 [1] | pKi [4] | Structure (SMILES) | other results |
| --- | --- | --- | --- |
| 7.09 | 7.03 | O=C(O)COc1cccc2c1CC[C@H](Cn1nc(C(c3ccccc3)c3ccccc3)ccc1=O)C2 | half-life [5]: 4.3 h; bioavailability [6]: 56% |
| 7.39 | – | O=C(O)COc1cccc2c1CCC(Cn1cc(C(c3ccccc3)c3ccccc3)cn1)=C2 | – |
| 8.37 | 7.10 | CC#CCC(C)[C@H](O)/C=C/[C@H]1[C@H](O)CC2Oc3c(CCCC(=O)[O-])cccc3[C@@H]21.[Na+] (some centres not stated) | half-life [2]: 0.43 h; half-life [3]: 3.3 h |
